Test results published in article PMC10994559 (PLOS Neglected Tropical Diseases, 2024).
Values joined by “and” are separate entries in the source; they are usually repeats but may differ in a detail not shown here. Equal values may be shown once.

System: T. brucei brucei BSF
Test: T. brucei BSF viability, resazurin reduction
Type: cell-based, Trypanosoma brucei brucei
Settings: BSF, 2.5 µM, 72 h

SMILES | Residual viability, T.brucei (2.5 µM) [%]
NCc1ccc(Oc2ccc3c(c2)COB3O)cc1 [AN3057, reference compound] | 0.3

Same assay, conditions: BSF, 2.5 µM, 72 h; listed as An3057, 2.5 µM

SMILES | Residual viability, T.brucei (2.5 µM) [%]
NCc1ccc(Oc2ccc3c(c2)COB3O)cc1 [AN3057, reference compound] | 0.32±0.58

Same assay, conditions: BSF, 25 µM, 72 h

SMILES | Residual viability, T.brucei (25 µM) [%]
NCc1ccc(Oc2ccc3c(c2)COB3O)cc1 [AN3057, reference compound] | -2.85±1.48

Same assay, conditions: Trypanosoma brucei, 2.5 µM; read-out: viability, T.brucei (2.5 µM)

SMILES | viability at 2.5 µM [%]
CC(C)(C)OC(=O)NC(Cc1ccccc1)C(O)CNc1ccc(OC(F)(F)F)cc1 (centres unmarked) [LTC-1023] | -1.06 ± 0.31
CC(C)(C)OC(=O)NC(Cc1ccccc1)C(O)CNc1cccc(C(F)(F)F)c1 (centres unmarked) [LTC-1025] | 78 ± 4.59

Same assay, conditions: Trypanosoma brucei, 25 µM; read-out: viability, T.brucei (25 µM)

SMILES | viability at 25 µM [%]
CC(C)(C)OC(=O)NC(Cc1ccccc1)C(O)CNc1ccc(OC(F)(F)F)cc1 (centres unmarked) [LTC-1023] | 1.99 ± 1
CC(C)(C)OC(=O)NC(Cc1ccccc1)C(O)CNc1cccc(C(F)(F)F)c1 (centres unmarked) [LTC-1025] | 2.26 ± 1.07

Same assay, conditions: Trypanosoma brucei, 72 h, read-out: Residual viability, T.brucei (2.5 µM), BSF, 2.5 µM, 72 h

SMILES | viability at 2.5 µM [%]
CC(C)(C)OC(=O)NC(Cc1ccccc1)C(O)CNc1ccc(OC(F)(F)F)cc1 (centres unmarked) [LTC-1023] | < 10

Same assay, conditions: Trypanosoma brucei, read-out: EC50 T. brucei BSF, dose response, triplicate; ± SD (Table 2) / ± SE (S3 Table)

SMILES | EC50 [µM]
CC(C)(C)OC(=O)NC(Cc1ccccc1)C(O)CNc1ccc(OC(F)(F)F)cc1 (centres unmarked) [LTC-1023] | 1.1 ± 1.7
CC(C)(C)OC(=O)NC(Cc1ccccc1)C(O)CNc1cccc(C(F)(F)F)c1 (centres unmarked) [LTC-1025] | 3.7 ± 1.7

Same assay, conditions: dose response, triplicate; ± SD (Table 2) / ± SE (S3 Table); read-out: EC50 T. brucei BSF

SMILES | EC50 [µM]
NCc1ccc(Oc2ccc3c(c2)COB3O)cc1 [AN3057, reference compound] | 0.005 ± 0.002

System: L. major promastigotes
Test: L. major promastigote viability, resazurin reduction
Type: cell-based, Leishmania major
Settings: Leishmania major, 72 h, read-out: viability, L.major promastigote (25 µM)
Text: (§1) The infectivity of the parasites was boosted by passaging in Balb/c mice and culturing the infected lymph nodes after six weeks. L. infantum (MHOM / BR / 76 / M4192) parasite was passaged in the same media formulation with 0.5% urine.

SMILES | viability at 25 µM [%]
CC(C)(C)OC(=O)NC(Cc1ccccc1)C(O)CNc1ccc(OC(F)(F)F)cc1 (centres unmarked) [LTC-1023] | 88.6 ± 3.09
CC(C)(C)OC(=O)NC(Cc1ccccc1)C(O)CNc1cccc(C(F)(F)F)c1 (centres unmarked) [LTC-1025] | 88.3 ± 1.36

Same assay, conditions: Leishmania major; 25 µM; read-out: viability, L.major promastigote (25 µM)

SMILES | viability at 25 µM [%]
CC(C)(C)OC(=O)NC(Cc1ccccc1)C(O)CNc1ccc(OC(F)(F)F)cc1 (centres unmarked) [LTC-1023] | 0.83 ± 1.76
CC(C)(C)OC(=O)NC(Cc1ccccc1)C(O)CNc1cccc(C(F)(F)F)c1 (centres unmarked) [LTC-1025] | 0.16 ± 0.69

System: E. histolytica
Test: E. histolytica viability, ATP luminescence (Cell titer glo)
Type: cell-based, Entamoeba histolytica
Settings: Entamoeba histolytica; read-out: viability, E.histolytica (2.5 µM)
Procedure, shortened: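 E. histolytica strain B2-5 at 2.5x10^4 cells/ml was exposed to compound for 48 h at 37 °C under anaerobic conditions, with viability read as ATP luminescence (CellTiter-Glo). The primary screen used 25 μM in triplicate, and follow-up potency runs used 9–16-point ranges spanning 0.01–100 μM.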

SMILES | viability at 2.5 µM [%]
CC(C)(C)OC(=O)NC(Cc1ccccc1)C(O)CNc1ccc(OC(F)(F)F)cc1 (centres unmarked) [LTC-1023] | 48.5 ± 4.19
CC(C)(C)OC(=O)NC(Cc1ccccc1)C(O)CNc1cccc(C(F)(F)F)c1 (centres unmarked) [LTC-1025] | 45.9 ± 11.6

Same assay, conditions: Entamoeba histolytica; read-out: viability, E.histolytica (25 µM)

SMILES | viability at 25 µM [%]
CC(C)(C)OC(=O)NC(Cc1ccccc1)C(O)CNc1ccc(OC(F)(F)F)cc1 (centres unmarked) [LTC-1023] | 59.6 ± 14.7
CC(C)(C)OC(=O)NC(Cc1ccccc1)C(O)CNc1cccc(C(F)(F)F)c1 (centres unmarked) [LTC-1025] | 55.3 ± 4.32

System: intracellular L. infantum amastigotes
Test: Parasite rescue assay (intramacrophage, J774 infected with L. infantum)
Type: cell-based, Leishmania infantum
Settings: Leishmania infantum, J774, read-out: EC50 L. infantum rescue assay, intramacrophage (J774), 18 concentrations

SMILES | EC50 [µM]
CC(C)(C)OC(=O)NC(Cc1ccccc1)C(O)CNc1ccc(OC(F)(F)F)cc1 (centres unmarked) [LTC-1023] | 4.1 ± 1.8
CC(C)(C)OC(=O)NC(Cc1ccccc1)C(O)CNc1cccc(C(F)(F)F)c1 (centres unmarked) [LTC-1025] | 2.9 ± 2.9

Same assay, conditions: Leishmania infantum, J774, rescue assay in J774, 25 µM; read-out: Residual viability, intracellular L. infantum amastigote (25 µM)

SMILES | viability at 25 µM [%]
CC(C)(C)OC(=O)NC(Cc1ccccc1)C(O)CNc1ccc(OC(F)(F)F)cc1 (centres unmarked) [LTC-1023] | 4.9
CC(C)(C)OC(=O)NC(Cc1ccccc1)C(O)CNc1cccc(C(F)(F)F)c1 (centres unmarked) [LTC-1025] | 2.8

Same assay, conditions: read-out: EC50 L. infantum rescue assay; intramacrophage (J774), 18 concentrations

SMILES | EC50
CC(C)(C)OC(=O)NC(Cc1ccccc1)C(O)CNc1ccc(OC(F)(F)F)cc1 (centres unmarked) [LTC-1023] | 4.08 ± 1.8 µM
CC(C)(C)OC(=O)NC(Cc1ccccc1)C(O)CNc1cccc(C(F)(F)F)c1 (centres unmarked) [LTC-1025] | 2.8 µM and 2.84 µM

System: L. infantum promastigotes
Test: L. infantum promastigote viability, resazurin reduction
Type: cell-based, Leishmania infantum
Settings: Leishmania infantum; 2.5 µM; sheet LTC_compound_viability; value ± spread; read-out: viability, L. infantum promastigote (2.5 µM)
Text: as §1

SMILES | viability at 2.5 µM [%]
CC(C)(C)OC(=O)NC(Cc1ccccc1)C(O)CNc1ccc(OC(F)(F)F)cc1 (centres unmarked) [LTC-1023] | 67.5 ± 2.44
CC(C)(C)OC(=O)NC(Cc1ccccc1)C(O)CNc1cccc(C(F)(F)F)c1 (centres unmarked) [LTC-1025] | 55.3 ± 1.69

Same assay, conditions: Leishmania infantum; 25 µM; sheet LTC_compound_viability; value ± spread; read-out: viability, L. infantum promastigote (25 µM)

SMILES | viability at 25 µM [%]
CC(C)(C)OC(=O)NC(Cc1ccccc1)C(O)CNc1ccc(OC(F)(F)F)cc1 (centres unmarked) [LTC-1023] | 1.5 ± 0.05
CC(C)(C)OC(=O)NC(Cc1ccccc1)C(O)CNc1cccc(C(F)(F)F)c1 (centres unmarked) [LTC-1025] | 0.7 ± 0.03

System: L. major axenic amastigotes
Test: L. major axenic amastigote viability, resazurin reduction
Settings: Leishmania major, read-out: viability, L.major amastigote (25 µM)
Procedure, shortened: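 Axenic L. major LV561 amastigotes were grown in Grace medium with 20% FCS, pH 5.4, at 33°C and seeded at 0.5x10^5 cells/well with compounds for 72 h. Resazurin was then added for 6 h and fluorescence read at ex 550/em 590 nm; hits were retested at 2.5 μM.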

SMILES | viability at 25 µM [%]
CC(C)(C)OC(=O)NC(Cc1ccccc1)C(O)CNc1ccc(OC(F)(F)F)cc1 (centres unmarked) [LTC-1023] | 18 ± 1.91
CC(C)(C)OC(=O)NC(Cc1ccccc1)C(O)CNc1cccc(C(F)(F)F)c1 (centres unmarked) [LTC-1025] | 21.2 ± 2.05

Same assay, conditions: Leishmania major, read-out: viability, L.major amastigote(2.5 µM)

SMILES | viability at 2.5 µM [%]
CC(C)(C)OC(=O)NC(Cc1ccccc1)C(O)CNc1ccc(OC(F)(F)F)cc1 (centres unmarked) [LTC-1023] | 68.4 ± 1.28
CC(C)(C)OC(=O)NC(Cc1ccccc1)C(O)CNc1cccc(C(F)(F)F)c1 (centres unmarked) [LTC-1025] | 77 ± 1.6

System: human hepatocyte carcinoma HepG2 cells
Test: Cytotoxicity assay HepG2, resazurin reduction
Type: cell-based
Settings: Homo sapiens, HepG2, 72 h, cytotoxicity, 72 h; read-out: EC50 (CT50) HepG2
Method: Mammalian cell lines (J774 and HepG2) were passaged in RPMI media supplemented with MEM, Pen-Strep (1%) and 10% FCS. Cultures were kept at 37°C incubator with 5% CO2 in filter-cap flasks.
Murine macrophage cells (J774) and human hepatocyte carcinoma HepG2 cells were seeded at 0.5x10^5 cell/well in 384 well plates in triplicate, exposed to serial dilution of compounds, dispensed using an Echo 650 acoustic dispenser (Labcyte). After incubation for 72 h at 37°C, 5% CO2, cell viability was determined using fluorescence resazurin reduction assay (λEx: 550 nm; λEm: 590 nm).

SMILES | EC50 [µM]
CC(C)(C)OC(=O)NC(Cc1ccccc1)C(O)CNc1ccc(OC(F)(F)F)cc1 (centres unmarked) [LTC-1023] | 16.7 ± 1.9
CC(C)(C)OC(=O)NC(Cc1ccccc1)C(O)CNc1cccc(C(F)(F)F)c1 (centres unmarked) [LTC-1025] | 31.6 ± 1.7

Same assay, conditions: cytotoxicity, 72 h; read-out: EC50 (CT50) HepG2

SMILES | EC50
CC(C)(C)OC(=O)NC(Cc1ccccc1)C(O)CNc1ccc(OC(F)(F)F)cc1 (centres unmarked) [LTC-1023] | 31.6 µM and 16.7 µM
CC(C)(C)OC(=O)NC(Cc1ccccc1)C(O)CNc1cccc(C(F)(F)F)c1 (centres unmarked) [LTC-1025] | 33.8 µM and 31.6 µM

System: Murine macrophage cells (J774)
Test: Cytotoxicity assay J774, resazurin reduction
Type: cell-based
Settings: Mus musculus, J774, 72 h, cytotoxicity, 72 h
Procedure, shortened: (§2)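 J774 and HepG2 cells were seeded at 0.5x10^5 cell/well and exposed to serially diluted compounds for 72 h at 37°C, 5% CO2. Viability was read by fluorescence resazurin reduction (λEx 550 nm, λEm 590 nm).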

SMILES | EC50 [µM]
CC(C)(C)OC(=O)NC(Cc1ccccc1)C(O)CNc1ccc(OC(F)(F)F)cc1 (centres unmarked) [LTC-1023] | > 25
CC(C)(C)OC(=O)NC(Cc1ccccc1)C(O)CNc1cccc(C(F)(F)F)c1 (centres unmarked) [LTC-1025] | > 25

Same assay, conditions: cytotoxicity, 72 h

SMILES | EC50 [µM]
CC(C)(C)OC(=O)NC(Cc1ccccc1)C(O)CNc1ccc(OC(F)(F)F)cc1 (centres unmarked) [LTC-1023] | > 16
CC(C)(C)OC(=O)NC(Cc1ccccc1)C(O)CNc1cccc(C(F)(F)F)c1 (centres unmarked) [LTC-1025] | > 16

System: not listed separately
Test: Cytotoxicity assay J774, resazurin reduction
Type: cell-based, murine
Settings: mouse, J774 macrophage cells; 2.5 µM; read-out: viability, J774 (2.5 µM)
Procedure, shortened: as §2

SMILES | viability at 72 h, 2.5 µM [%]
CC(C)(C)OC(=O)NC(Cc1ccccc1)C(O)CNc1ccc(OC(F)(F)F)cc1 (centres unmarked) [LTC-1023] | 96.7 ± 4.49
CC(C)(C)OC(=O)NC(Cc1ccccc1)C(O)CNc1cccc(C(F)(F)F)c1 (centres unmarked) [LTC-1025] | 75.1 ± 3.41

Same assay, conditions: mouse, J774 macrophage cells; 25 µM; read-out: viability, J774 (25 µM)

SMILES | viability at 72 h, 25 µM [%]
CC(C)(C)OC(=O)NC(Cc1ccccc1)C(O)CNc1ccc(OC(F)(F)F)cc1 (centres unmarked) [LTC-1023] | 75.7 ± 4.65
CC(C)(C)OC(=O)NC(Cc1ccccc1)C(O)CNc1cccc(C(F)(F)F)c1 (centres unmarked) [LTC-1025] | 98.5 ± 8.61

System: T. brucei brucei BSF
Test: not given
Design: method as in PMID 29425238
Settings: read-out: reported EC50 T. brucei; cited from earlier work

SMILES | EC50 [µM]
NCc1ccc(Oc2ccc3c(c2)COB3O)cc1 [AN3057, reference compound] | 0.0052

System: T. cruzi trypomastigotes
Test: T. cruzi viability, resazurin reduction
Type: cell-based, Trypanosoma cruzi
Settings: Trypanosoma cruzi, 2.5 µM; read-out: viability, T.cruzi (2.5 µM)
Procedure, shortened: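 Y-strain trypomastigotes kept in supplemented liver infusion tryptose broth with 10% FCS, pH 7.2, at 28°C. Viability by fluorescence resazurin reduction; single-point screen at 2.5 μM, then 18-concentration dose response. Amphotericin B as control drug.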

SMILES | viability at 2.5 µM [%]
CC(C)(C)OC(=O)NC(Cc1ccccc1)C(O)CNc1ccc(OC(F)(F)F)cc1 (centres unmarked) [LTC-1023] | 58.51 ± 0.23
CC(C)(C)OC(=O)NC(Cc1ccccc1)C(O)CNc1cccc(C(F)(F)F)c1 (centres unmarked) [LTC-1025] | 63.1 ± 2.47

Same assay, conditions: Trypanosoma cruzi, 25 µM; read-out: viability, T.cruzi (25 µM)

SMILES | viability at 25 µM [%]
CC(C)(C)OC(=O)NC(Cc1ccccc1)C(O)CNc1ccc(OC(F)(F)F)cc1 (centres unmarked) [LTC-1023] | 23.2 ± 1.67
CC(C)(C)OC(=O)NC(Cc1ccccc1)C(O)CNc1cccc(C(F)(F)F)c1 (centres unmarked) [LTC-1025] | 23.4 ± 2.5
